From the supplement of paper PMC10307832

Legend:
Test in all cases: relative viability (nuclei count vs DMSO), 5 days (fraction); higher = more cells survive
HCC-78 = system: HCC-78
Outline: (§1)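 A single step with final 0.05% Triton X-100, 1% formaldehyde and 1 ug/ml Hoechst fixed the cells and stained nuclei 5 days after treatment. Lung cancer cell lines in 1536-well plates had been treated by pin tool the day after seeding with one drug alone or a fixed anchor-drug dose plus five library-drug doses (not always all listed) in √10 steps, and nuclei were counted on 4× images. Relative viability is the ratio of nuclei in treated wells to nuclei in vehicle wells, taken as the median of duplicate plates.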

BEN = system: BEN
Outline: as §1

LK-2 = system: LK-2
Outline: as §1

PC-3 [JPC-3] = system: PC-3 [JPC-3]
Outline: as §1

NCI-H358 = system: NCI-H358
Outline: as §1

NCI-H596 = system: NCI-H596
Outline: as §1

NCI-H1944 = system: NCI-H1944
Outline: as §1

NCI-H650 = system: NCI-H650
Outline: as §1

LXF-289 = system: LXF-289
Outline: as §1

NCI-H838 = system: NCI-H838
Outline: as §1

NCI-H661 = system: NCI-H661
Outline: as §1

NCI-H1651 = system: NCI-H1651
Outline: as §1

NCI-H1975 = system: NCI-H1975
Outline: as §1

NCI-H1666 = system: NCI-H1666
Outline: as §1

NCI-H2087 = system: NCI-H2087
Outline: as §1

LU99A = system: LU99A
Outline: as §1

LC-2-ad = system: LC-2-ad
Outline: as §1

SK-MES-1 = system: SK-MES-1
Outline: as §1

NCI-H1355 = system: NCI-H1355
Outline: as §1

LCLC-97TM1 = system: LCLC-97TM1
Outline: as §1

Structure (SMILES): Cc1sc2c(c1C)C(c1ccc(Cl)cc1)=N[C@@H](CC(=O)OC(C)(C)C)c1nnc(C)n1-2 [JQ1] + CS(=O)(=O)CCNCc1ccc(-c2ccc3ncnc(Nc4ccc(OCc5cccc(F)c5)c(Cl)c4)c3c2)o1 [Lapatinib] (partner 2 µM)
- relative viability (HCC-78; first compound 0.04 µM): 0.861
- relative viability (HCC-78; first compound 0.1265 µM): 0.53
- relative viability (HCC-78; first compound 0.4 µM): 0.493
- relative viability (HCC-78; first compound 1.265 µM): 0.391
- relative viability (HCC-78; first compound 4 µM): 0.28
- relative viability (BEN; first compound 0.04 µM): 0.676
- relative viability (BEN; first compound 0.1265 µM): 0.561
- relative viability (BEN; first compound 0.4 µM): 0.427
- relative viability (BEN; first compound 1.265 µM): 0.292
- relative viability (BEN; first compound 4 µM): 0.266
- relative viability (LK-2; first compound 0.04 µM): 0.886
- relative viability (LK-2; first compound 0.1265 µM): 0.896
- relative viability (LK-2; first compound 0.4 µM): 0.456
- relative viability (LK-2; first compound 1.265 µM): 0.177
- relative viability (LK-2; first compound 4 µM): 0.286
- relative viability (PC-3 [JPC-3]; first compound 0.04 µM): 0.488
- relative viability (PC-3 [JPC-3]; first compound 0.1265 µM): 0.529
- relative viability (PC-3 [JPC-3]; first compound 0.4 µM): 0.432
- relative viability (PC-3 [JPC-3]; first compound 1.265 µM): 0.412
- relative viability (PC-3 [JPC-3]; first compound 4 µM): 0.411
- relative viability (NCI-H358; first compound 0.04 µM): 0.467
- relative viability (NCI-H358; first compound 0.1265 µM): 0.494
- relative viability (NCI-H358; first compound 0.4 µM): 0.647
- relative viability (NCI-H358; first compound 1.265 µM): 0.561
- relative viability (NCI-H358; first compound 4 µM): 0.577
- relative viability (NCI-H596; first compound 0.04 µM): 1.07
- relative viability (NCI-H596; first compound 0.1265 µM): 0.956
- relative viability (NCI-H596; first compound 0.4 µM): 0.887
- relative viability (NCI-H596; first compound 1.265 µM): 0.546
- relative viability (NCI-H596; first compound 4 µM): 0.415
- relative viability (NCI-H1944; first compound 0.04 µM): 0.79
- relative viability (NCI-H1944; first compound 0.1265 µM): 0.543
- relative viability (NCI-H1944; first compound 0.4 µM): 0.614
- relative viability (NCI-H1944; first compound 1.265 µM): 0.584
- relative viability (NCI-H1944; first compound 4 µM): 0.454
- relative viability (NCI-H650; first compound 0.04 µM): 0.959
- relative viability (NCI-H650; first compound 0.1265 µM): 0.527
- relative viability (NCI-H650; first compound 0.4 µM): 0.647
- relative viability (NCI-H650; first compound 1.265 µM): 0.259
- relative viability (NCI-H650; first compound 4 µM): 0.295
- relative viability (LXF-289; first compound 0.04 µM): 0.915
- relative viability (LXF-289; first compound 0.1265 µM): 0.862
- relative viability (LXF-289; first compound 0.4 µM): 0.917
- relative viability (LXF-289; first compound 1.265 µM): 0.851
- relative viability (LXF-289; first compound 4 µM): 0.704
- relative viability (NCI-H838; first compound 0.04 µM): 0.991
- relative viability (NCI-H838; first compound 0.1265 µM): 0.462
- relative viability (NCI-H838; first compound 0.4 µM): 0.454
- relative viability (NCI-H838; first compound 1.265 µM): 0.237
- relative viability (NCI-H838; first compound 4 µM): 0.191
- relative viability (NCI-H661; first compound 0.04 µM): 0.402
- relative viability (NCI-H661; first compound 0.1265 µM): 0.527
- relative viability (NCI-H661; first compound 0.4 µM): 0.339
- relative viability (NCI-H661; first compound 1.265 µM): 0.27
- relative viability (NCI-H661; first compound 4 µM): 0.321
- relative viability (NCI-H1651; first compound 0.04 µM): 0.656
- relative viability (NCI-H1651; first compound 0.1265 µM): 0.706
- relative viability (NCI-H1651; first compound 0.4 µM): 0.481
- relative viability (NCI-H1651; first compound 1.265 µM): 0.365
- relative viability (NCI-H1651; first compound 4 µM): 0.408
- relative viability (NCI-H1975; first compound 0.04 µM): 0.85
- relative viability (NCI-H1975; first compound 0.1265 µM): 0.551
- relative viability (NCI-H1975; first compound 0.4 µM): 0.565
- relative viability (NCI-H1975; first compound 1.265 µM): 0.351
- relative viability (NCI-H1975; first compound 4 µM): 0.333
- relative viability (NCI-H1666; first compound 0.04 µM): 0.697
- relative viability (NCI-H1666; first compound 0.1265 µM): 0.476
- relative viability (NCI-H1666; first compound 0.4 µM): 0.379
- relative viability (NCI-H1666; first compound 1.265 µM): 0.278
- relative viability (NCI-H1666; first compound 4 µM): 0.288
- relative viability (NCI-H2087; first compound 0.04 µM): 1.12
- relative viability (NCI-H2087; first compound 0.4 µM): 0.904
- relative viability (NCI-H2087; first compound 1.265 µM): 0.786
- relative viability (NCI-H2087; first compound 4 µM): 0.506
- relative viability (LU99A; first compound 0.04 µM): 1.14
- relative viability (LU99A; first compound 0.1265 µM): 0.933
- relative viability (LU99A; first compound 0.4 µM): 0.902
- relative viability (LU99A; first compound 1.265 µM): 0.316
- relative viability (LU99A; first compound 4 µM): 0.217
- relative viability (LC-2-ad; first compound 0.04 µM): 0.92
- relative viability (LC-2-ad; first compound 0.1265 µM): 0.436
- relative viability (LC-2-ad; first compound 0.4 µM): 0.409
- relative viability (LC-2-ad; first compound 1.265 µM): 0.158
- relative viability (LC-2-ad; first compound 4 µM): 0.155
- relative viability (SK-MES-1; first compound 0.04 µM): 0.455
- relative viability (SK-MES-1; first compound 0.1265 µM): 0.436
- relative viability (SK-MES-1; first compound 0.4 µM): 0.361
- relative viability (SK-MES-1; first compound 1.265 µM): 0.292
- relative viability (SK-MES-1; first compound 4 µM): 0.274
- relative viability (NCI-H1355; first compound 0.04 µM): 0.967
- relative viability (NCI-H1355; first compound 0.1265 µM): 0.973
- relative viability (NCI-H1355; first compound 0.4 µM): 0.956
- relative viability (NCI-H1355; first compound 1.265 µM): 0.765
- relative viability (NCI-H1355; first compound 4 µM): 0.596
- relative viability (LCLC-97TM1; first compound 0.1265 µM): 0.805
- relative viability (LCLC-97TM1; first compound 0.4 µM): 0.781
- relative viability (LCLC-97TM1; first compound 1.265 µM): 0.243
- relative viability (LCLC-97TM1; first compound 4 µM): 0.252
